Assays:
Akt/PKB = Akt/PKB phosphorylation (Western blot); type: cell-based, human; conditions: Mia PACA-2, 72 hours, with serum; genistein 100 μM, LY294002 50 μM
Experimental: To determine whether phosphatidylinositol 3-kinase (PI 3-kinase) and Akt/PKB mediate the effects of serum on NF-κB activation and that the effects of polyphenolic compounds on NF-κB activation are due to an ability to inhibit PI 3-kinase, the following assays were conducted. Specifically, to determine the effects of serum, LY294002, a PI 3-kinase inhibitor, and genistein on Akt/PKB phosphorylation, Mia PACA-2 cells were cultured for 72 hours in the absence or presence of serum with or without 100 μM genistein (GN) or 50 μM LY294002. Western blots were performed on whole cell lysates as described above except that specific antibodies against phosphorylated and total Akt/PKB were used (Akt/PKB is Anti-pS473 AktpAB from Promega, Madison Wis. and total Akt is Akt ½ from Santa Cruz, Santa Cruz, Calif.). The membranes were then stripped and re-probed with an antibody against total Akt .

[1] = tested on: BSp73AS and Mia PACA-2 cells; experiment: Caspase-3 activity and annexin staining with MG-132 (FIG. 14C); type: cell-based; conditions: polyphenols 100 μM, MG-132 20 μM
caspase-3 [2] = experiment: Caspase-3 processing (Western blot); type: cell-based, human
Experimental: (§1) In order to determine the effect polyphenolic compounds have on caspase-3 activity, the following assay was conducted. BSp73AS cells were culture in the absence of serum or growth factors for 24 hours in 0, 10, 20, and 50 μM of trans-resveratrol and Mia PACA-2 -cells were cultured for 72 hours in the presences of 0, 10, 20, and 50 μM of tran-resveratrol. Cell lysates were then prepared and 50 μg protein aliquots were loaded per lane and blotted with rabbit polyclonal antibody against caspase-3 (Santa Cruz Biotechnology, Santa Cruz, Calif.). The experiment was repeated 3 times with similar results.

Mia PACA-2 = experiment: TUNEL apoptosis assay in primary tumors and normal tissues; type: in vivo, nude mouse
Experimental: In order to determine the mechanism of the suppressive effects of quercetin on the growth of the pancreatic cancer, apoptosis in the primary tumors using the TUNEL assay was conducted. See Gukovskaya AS, et al. (1997) Clin Invest 100:1853-1862; Gukovskaya AS, et al. (1996) Gastroenterology 110:875-884; and Sandoval D, et al. (1996) Gastroenterology 111:1081-1091, which are herein incorporated by reference. Specifically, 3 μm tissue section were deparaffinized and rehydrated through a graded series of ethanol and redistilled water. Tissue sections were refixed in 4% paraformaldehyde for 15 minutes at room temperature and then incubated with proteinase K (20 μg/ml in 10 mM Tirs/HCL, pH 7.4-8.0) for 15 minutes at 37° C. DNA breaks were then labeled with terminal deoxytransferase (TdT) and biotinylated deoxyUTP. Staining without TdT enzyme or the biotinylated substrate were used as negative controls. For positive controls, slides were treated with DNase I. Measurements were made by light microscpy observations and values calculated as the percentage of cells positively stained as a percentage of the total number of cells.

caspase-3 [3] = experiment: Caspase-3 processing (Western blot); type: cell-based, rat; conditions: BSp73AS
Experimental: as §1

O=c1c(-c2ccc(O)cc2)coc2cc(O)cc(O)c12 [genistein]
serum-induced Akt/PKB phosphorylation/activation (Akt/PKB): attenuated serum-induced Akt phosphorylation/activation | apoptosis (annexin staining) [1]: causes significant apoptosis

O=c1c(O)c(-c2ccc(O)c(O)c2)oc2cc(O)cc(O)c12 [quercetin]
lowest concentration with effect on caspase-3 conversion (caspase-3 [2]; Mia PACA-2, 72 hours (FIG. 7A)): 20 µM | conversion of caspase-3 from inactive to active form (caspase-3 [2]; Mia PACA-2, 72 hours, 0-50 μM (FIG. 7A)): convert caspase-3 from its inactive form (32 kDa doublet) to its active form (17 kDa) | Percentage of apoptosis (Mia PACA-2; TUNEL in primary tumors of quercetin-treated nude mice, means ± SE, n=8): 7.10 ± 1.00 % | apoptosis in normal tissues detected by the TUNEL assay (Mia PACA-2; quercetin-treated nude mice, data not shown): no increase in apoptosis

Oc1ccc(/C=C/c2cc(O)cc(O)c2)cc1 [trans-resveratrol]
lowest concentration with effect on caspase-3 conversion (caspase-3 [3]; 24 hours (FIG. 6A)): 20 µM | conversion of caspase-3 from inactive to active form (caspase-3 [3]; 24 hours, no serum, 0-50 μM (FIG. 6A)): convert caspase-3 from its inactive form (32 kDa doublet) to its active form (17 kDa)

— patent publication US6953786B2, “Compositions comprising plant-derived polyphenolic compounds and inhibitors of reactive oxygen species and methods of using thereof” (The Regents of the University of California, priority 2002, dated 2005)
